The numbers were not newly measured in patent US20050032677A1, “Fungicidal and/or bactericidal composition, production process thereof and sterilization method using the composition” (priority 2001, published 2005), which cites them from elsewhere.

One may read the LD50 as the dose expected to kill half of the subjects tested.

Like-named read-outs stand apart in the source and are kept apart here. *1 amine or outer side, *2 acyl side, *3 side chain or, on linkers, in order; H or OH if unused. Where a SMILES comes first, the peptide text is derived from it. Bridges are numbered along the chain shown (N, C = ends). [ ]: non-standard residue; d: D form. X1 = CC(C)CCCCCCCCC[C@H](CC(=O)[*:1])O[*:2]

One data set relates to erythrocyte membrane. To be noted: relative to mixing iturin and surfactin in the latter ratio (2:1).
For the next data set, the system named is erythrocyte. To be noted: relative to mixing iturin and surfactin.
The next data set concerns mouse. The following applies: hypodermic injection to a mouse.

Turning to `CC(C)CCCCCCCCC[C@@H]1CC(=O)N[C@@H](CCC(=O)O)C(=O)N[C@@H](CC(C)C)C(=O)N[C@H](CC(C)C)C(=O)N[C@@H](C(C)C)C(=O)N[C@@H](CC(=O)O)C(=O)N[C@H](CC(C)C)C(=O)N[C@@H](CC(C)C)C(=O)O1` [surfactin] (EL[dL]VD[dL]L; linker N-C via X1), the “critical micelle concentration (CMC)” value reads like this: (aqueous solution) 250 µM; (in a 0.1M sodium hydrogencarbonate solution) 10 µM.
In the case of iturin, the “critical micelle concentration (CMC)” value (aqueous solution) is 40 µM. For the same molecule, the “amount bound to the erythrocyte membrane relative to iturin:surfactin 2:1” value in the data set with erythrocyte membrane was “at most a half”. Further, the “hemolysis activity relative to iturin and surfactin mixture” value in the data set on erythrocyte is recorded as “about one sixth”. For the same molecule, the median lethal dose (LD50) with mouse is given as 157 mg/kg.
